# Laboratory results: ChEMBL document CHEMBL1127275, “Peptide based P21RAS farnesyl transferase inhibitors: systematic modification of the tetrapeptide CA1A2X motif” (Bioorg Med Chem Lett, 1994)
# Biological target: Protein farnesyltransferase (Rattus norvegicus, UniProt Q02293+Q04631)
# Test: In vitro inhibitory concentration evaluated against P21ras Farnesyl transferase
# Type: protein-complex assay
row,IC50 [µM],Compound
1,0.42,CN[C@@H](CS)C(=O)N[C@H](C(=O)N[C@@H](Cc1ccccc1)C(=O)N[C@@H](CCSC)C(=O)O)C(C)C
2,0.12,CSCC[C@H](NC(=O)[C@H](CCc1ccccc1)NC(=O)[C@@H](NC(=O)[C@@H](N)CS)C(C)C)C(=O)O
3,250,CSCC[C@H](NC(=O)[C@H](Cc1ccccc1)NC(=O)[C@@H](NC(=O)[C@@H](N)CC(=O)O)C(C)C)C(=O)O
4,0.696,CSCC[C@H](NC(=O)[C@@H](NC(=O)[C@@H](NC(=O)[C@@H](N)CS)C(C)C)c1ccccc1)C(=O)O
5,0.014,CSCC[C@H](NC(=O)[C@H](Cc1c[nH]c2ccccc12)NC(=O)[C@@H](NC(=O)[C@@H](N)CS)C(C)C)C(=O)O
6,0.012,CSCC[C@H](NC(=O)[C@H](Cc1ccccc1)NC(=O)[C@@H](NC[C@@H](N)CS)C(C)C)C(=O)O
7,6.8,CSCC[C@H](NC(=O)[C@H](Cc1ccccc1)NC(=O)[C@@H](NC(=O)[C@@H](N)Cc1cnc[nH]1)C(C)C)C(=O)O
8,1.8,CSCC[C@H](NC(=O)[C@H](Cc1ccccc1)NC(=O)[C@@H](NC(=O)C[C@H](N)CS)C(C)C)C(=O)O
9,0.4,CC(C)[C@H](NC(=O)[C@@H](N)CS)C(=O)N[C@@H](Cc1ccccc1)C(=O)N[C@@H](Cc1ccccc1)C(=O)O
10,0.012,CSCC[C@H](NC(=O)[C@H](Cc1ccc2ccccc2c1)NC(=O)[C@@H](NC(=O)[C@@H](N)CS)C(C)C)C(=O)O
11,2.7,CSCC[C@H](NC(=O)[C@H](Cc1ccccc1)NC(=O)[C@@H](NC(=O)[C@@H](N)CCS)C(C)C)C(=O)O (stereo in doubt; form 2)

# More lines, now with the values behind:
row,Compound,IC50 [µM]
1,CSCC[C@H](NC(=O)[C@H](Cc1ccccc1)NC(=O)[C@H](C(C)C)N(C)C(=O)[C@@H](N)CS)C(=O)O,0.25
2,CSCC[C@H](NC(=O)[C@H](Cc1ccccc1)NC(=O)C1(NC(=O)[C@@H](N)CS)CCCCC1)C(=O)O,1.2
3,CSCC[C@H](NC(=O)[C@H](Cc1ccccc1)NC[C@@H](NC(=O)[C@@H](N)CS)C(C)C)C(=O)O,0.126
4,CSCC[C@H](NC(=O)[C@H](Cc1ccccc1)N(C)C(=O)[C@@H](NC(=O)[C@@H](N)CS)C(C)C)C(=O)O,0.36
5,CSCC[C@H](NC(=S)[C@H](Cc1ccccc1)NC(=O)[C@@H](NC(=O)[C@@H](N)CS)C(C)C)C(=O)O,0.017
6,CSCC[C@H](NC(=O)[C@@H](NC(=O)[C@@H](NC[C@@H](N)CS)C(C)C)C(C)C)C(=O)O,0.029
7,CSCC[C@H](NC(=O)[C@@H](NC(=O)[C@@H](NC(=O)[C@@H](N)CS)C(C)C)C(C)C)C(=O)O,0.068
8,CSCC[C@H](NC(=O)[C@H](Cc1ccccc1)NC(=O)[C@@H](NC(=O)[C@@H](N)CCC(=O)O)C(C)C)C(=O)O,120
9,CSCC[C@H](NC(=O)[C@H](Cc1ccccc1)NC(=O)[C@H](C)NC(=O)[C@@H](N)CS)C(=O)O,0.241
10,CSCC[C@H](NC(=O)[C@H](Cc1ccccc1)NC(=O)C(C)(C)NC(=O)[C@@H](N)CS)C(=O)O,0.4
11,CSCC[C@@H](C(=O)O)N(C)C(=O)[C@H](Cc1ccccc1)NC(=O)[C@@H](NC(=O)[C@@H](N)CS)C(C)C,1.4
12,CCCC[C@H](NC(=O)[C@H](Cc1ccccc1)NC(=O)[C@@H](NC(=O)[C@@H](N)CS)C(C)C)C(=O)O,0.95
13,CSCC[C@H](NC(=O)[C@H](Cc1ccccc1)NC(=O)[C@@H](NC(=O)[C@@H](N)CCS)C(C)C)C(=O)O (stereo in doubt; form 1),0.51
